Measurements: ChEMBL document CHEMBL1201862, “PubChem BioAssay data set” (2004)
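The compound was tested at five concentrations on cells cultured in 96-well plates, with a 48-hour exposure period. The concentration for 50% growth inhibition is given as GI50.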 The source made the active and inactive calls. Rule as the data show it: active = GI50 up to about 1.1 µM and inactive = higher.

Tests used:
Experiment in all cases: DTP human tumour cell line panel, 48 h
CAKI-1 = test system: CAKI-1
UACC-257 = test system: UACC-257
HCT-116 = test system: HCT-116
UO-31 = test system: UO-31
M14 = test system: M14
HOP-62 = test system: HOP-62
SR = test system: SR
IGROV-1 = test system: IGROV-1
SN12C = test system: SN12C
SF-295 = test system: SF-295
786-0 = test system: 786-0
OVCAR-5 = test system: OVCAR-5
EKVX = test system: EKVX
MDA-MB-435 = test system: MDA-MB-435
OVCAR-8 = test system: OVCAR-8
SK-MEL-2 = test system: SK-MEL-2
RPMI-8226 = test system: RPMI-8226
HOP-92 = test system: HOP-92
A498 = test system: A498
NCI-H226 = test system: NCI-H226

Structure (SMILES)	GI50 (CAKI-1)	GI50 (UACC-257)	GI50 (HCT-116)	GI50 (UO-31)	GI50 (M14)	GI50 (HOP-62)	GI50 (SR)	GI50 (IGROV-1)	GI50 (SN12C)	GI50 (SF-295)	GI50 (786-0)	GI50 (OVCAR-5)	GI50 (EKVX)	GI50 (MDA-MB-435)	GI50 (OVCAR-8)	GI50 (SK-MEL-2)	GI50 (RPMI-8226)	GI50 (HOP-92)	GI50 (A498)	GI50 (NCI-H226)
N#CCc1nc(-c2ccccc2)n[nH]1	> 100 µM (inactive)	> 100 µM (inactive)	> 100 µM (inactive)	> 100 µM (inactive)	> 100 µM (inactive)	> 100 µM (inactive)	> 100 µM (inactive)	> 100 µM (inactive)	> 100 µM (inactive)	> 100 µM (inactive)	> 100 µM (inactive)	> 100 µM (inactive)	83.6 µM (inactive)	> 100 µM (inactive)	> 100 µM (inactive)	> 100 µM (inactive)	–	–	–	–
COC(=O)C1=C(C(=O)OC)SC(=C2S[C@@H]3[C@@H]4C[C@H]([C@@H]3S2)[C@H]2C(=O)OC(=O)[C@@H]42)S1	> 100 µM (inactive)	> 100 µM (inactive)	> 100 µM (inactive)	> 100 µM (inactive)	> 100 µM (inactive)	> 100 µM (inactive)	–	> 100 µM (inactive)	> 100 µM (inactive)	> 100 µM (inactive)	> 100 µM (inactive)	> 100 µM (inactive)	> 100 µM (inactive)	> 100 µM (inactive)	> 100 µM (inactive)	> 100 µM (inactive)	> 100 µM (inactive)	> 100 µM (inactive)	> 100 µM (inactive)	> 100 µM (inactive)
CCOC(=O)c1sc2c(c1O)c(=O)n(-c1ccccc1)c(=S)n2-c1ccccc1	–	> 100 µM (inactive)	–	87.3 µM (inactive)	> 100 µM (inactive)	–	10.8 µM (inactive)	> 100 µM (inactive)	61.1 µM (inactive)	35.5 µM (inactive)	> 100 µM (inactive)	> 100 µM (inactive)	–	> 100 µM (inactive)	54.7 µM (inactive)	> 100 µM (inactive)	28.2 µM (inactive)	86.1 µM (inactive)	–	> 100 µM (inactive)
CC(C)(C)OC(=O)NCCNC(=O)OCc1ccccc1	> 100 µM (inactive)	> 100 µM (inactive)	–	> 100 µM (inactive)	> 100 µM (inactive)	> 100 µM (inactive)	> 100 µM (inactive)	> 100 µM (inactive)	> 100 µM (inactive)	> 100 µM (inactive)	> 100 µM (inactive)	> 100 µM (inactive)	> 100 µM (inactive)	> 100 µM (inactive)	> 100 µM (inactive)	> 100 µM (inactive)	> 100 µM (inactive)	> 100 µM (inactive)	–	> 100 µM (inactive)
Fc1ccccc1CN1COc2c(cc(Cl)c3cccnc23)C1	1.65 µM (inactive)	2.51 µM (inactive)	1.26 µM (inactive)	0.653 µM (active)	2.05 µM (inactive)	1.16 µM (inactive)	0.389 µM (active)	4.55 µM (inactive)	0.215 µM (active)	0.726 µM (active)	2.65 µM (inactive)	3.05 µM (inactive)	0.378 µM (active)	2.54 µM (inactive)	1.53 µM (inactive)	3.93 µM (inactive)	< 0.01 µM (active)	3.61 µM (inactive)	–	0.624 µM (active)
O=C(CCCN1CCC2(CC1)CC(=O)N(N1CCCCCC1)C2=O)c1ccc(F)cc1	81.5 µM (inactive)	26.7 µM (inactive)	55 µM (inactive)	91.6 µM (inactive)	33.6 µM (inactive)	35.1 µM (inactive)	29.2 µM (inactive)	> 100 µM (inactive)	> 100 µM (inactive)	27.6 µM (inactive)	20.8 µM (inactive)	41.7 µM (inactive)	> 100 µM (inactive)	> 100 µM (inactive)	18.5 µM (inactive)	> 100 µM (inactive)	58.5 µM (inactive)	–	62.7 µM (inactive)	–
CC12ON(P(=O)(c3ccccc3)c3ccccc3)C(C)(c3ccccc31)c1ccccc12	> 100 µM (inactive)	> 100 µM (inactive)	> 100 µM (inactive)	> 100 µM (inactive)	> 100 µM (inactive)	> 100 µM (inactive)	46.1 µM (inactive)	> 100 µM (inactive)	> 100 µM (inactive)	> 100 µM (inactive)	> 100 µM (inactive)	> 100 µM (inactive)	> 100 µM (inactive)	> 100 µM (inactive)	> 100 µM (inactive)	> 100 µM (inactive)	58.9 µM (inactive)	> 100 µM (inactive)	–	> 100 µM (inactive)
CS/C(=N\C#N)S/C=C/C(=O)c1ccc(Cl)cc1	6.52 µM (inactive)	20.9 µM (inactive)	18.5 µM (inactive)	18.3 µM (inactive)	22.3 µM (inactive)	38.2 µM (inactive)	3.13 µM (inactive)	18.3 µM (inactive)	26.2 µM (inactive)	29.1 µM (inactive)	20.8 µM (inactive)	39.4 µM (inactive)	66.5 µM (inactive)	24.9 µM (inactive)	20.2 µM (inactive)	17.6 µM (inactive)	–	88.5 µM (inactive)	–	–
CCOC(=O)c1ccc(Nc2nc3ccccc3nc2C(=O)OCC)cc1	> 100 µM (inactive)	–	> 100 µM (inactive)	> 100 µM (inactive)	> 100 µM (inactive)	> 100 µM (inactive)	> 100 µM (inactive)	> 100 µM (inactive)	> 100 µM (inactive)	–	57.7 µM (inactive)	> 100 µM (inactive)	> 100 µM (inactive)	> 100 µM (inactive)	> 100 µM (inactive)	> 100 µM (inactive)	85.9 µM (inactive)	43.1 µM (inactive)	–	–
O=c1/c(=C\c2ccccc2)sc2n1C(c1ccccc1)C1(O)CCCCC1N=2 (stereo not drawn)	> 100 µM (inactive)	> 100 µM (inactive)	51.3 µM (inactive)	44.2 µM (inactive)	> 100 µM (inactive)	> 100 µM (inactive)	62.5 µM (inactive)	> 100 µM (inactive)	> 100 µM (inactive)	–	> 100 µM (inactive)	> 100 µM (inactive)	–	> 100 µM (inactive)	> 100 µM (inactive)	62.1 µM (inactive)	59.8 µM (inactive)	–	36.8 µM (inactive)	> 100 µM (inactive)
COc1ccc(-n2c(C)nc3ccc(NC4OC(COC(C)=O)C(OC(C)=O)C(OC(C)=O)C4OC(C)=O)cc3c2=O)cc1 (stereo not drawn)	19.7 µM (inactive)	> 100 µM (inactive)	21.8 µM (inactive)	> 100 µM (inactive)	–	> 100 µM (inactive)	73.3 µM (inactive)	> 100 µM (inactive)	32 µM (inactive)	> 100 µM (inactive)	24.8 µM (inactive)	> 100 µM (inactive)	> 100 µM (inactive)	> 100 µM (inactive)	32.9 µM (inactive)	> 100 µM (inactive)	27.1 µM (inactive)	–	> 100 µM (inactive)	32.7 µM (inactive)
Cc1ccc(S(=O)(=O)N(CC(O)c2ccccc2)c2ccccc2F)cc1 (stereo not drawn)	15.7 µM (inactive)	4.65 µM (inactive)	12.7 µM (inactive)	16.2 µM (inactive)	16.4 µM (inactive)	16.8 µM (inactive)	–	21.7 µM (inactive)	17.8 µM (inactive)	17.5 µM (inactive)	17.6 µM (inactive)	19.2 µM (inactive)	35.6 µM (inactive)	16.2 µM (inactive)	19.3 µM (inactive)	17.9 µM (inactive)	17 µM (inactive)	10.2 µM (inactive)	19.9 µM (inactive)	20.7 µM (inactive)
CC1C(c2cc(C(C)(C)C)c(O)c(C(C)(C)C)c2)c2cc3c(cc2OC1N1CCOCC1)OCO3 (stereo not drawn)	–	34.6 µM (inactive)	13.7 µM (inactive)	12.4 µM (inactive)	17.5 µM (inactive)	16.9 µM (inactive)	64.7 µM (inactive)	36.2 µM (inactive)	33.8 µM (inactive)	15.3 µM (inactive)	13.7 µM (inactive)	> 100 µM (inactive)	23.9 µM (inactive)	24 µM (inactive)	19.1 µM (inactive)	23.7 µM (inactive)	26.9 µM (inactive)	–	–	–
CN(C)/C=C/c1ccnc2c1C(=O)c1ccccc1C2=O	16.3 µM (inactive)	2.25 µM (inactive)	3.22 µM (inactive)	7.48 µM (inactive)	1.92 µM (inactive)	15.6 µM (inactive)	–	12.2 µM (inactive)	5.2 µM (inactive)	4.56 µM (inactive)	17.2 µM (inactive)	17.3 µM (inactive)	18.3 µM (inactive)	1.35 µM (inactive)	15.5 µM (inactive)	3.65 µM (inactive)	3.48 µM (inactive)	31.8 µM (inactive)	31.9 µM (inactive)	10.5 µM (inactive)
COc1ccc(/C=C/C(=O)c2cc(CN(C)C)c(O)c(CN(C)C)c2)cc1	47.5 µM (inactive)	16.5 µM (inactive)	24.2 µM (inactive)	25.2 µM (inactive)	–	21.8 µM (inactive)	31.9 µM (inactive)	37 µM (inactive)	21.9 µM (inactive)	26.8 µM (inactive)	74 µM (inactive)	> 100 µM (inactive)	49.8 µM (inactive)	44 µM (inactive)	29.8 µM (inactive)	–	21.8 µM (inactive)	–	19.7 µM (inactive)	40.1 µM (inactive)
